Reference: patent US20110105389A1 (priority 2009, published 2011)

Key:
[1] = Metabolic stability in human liver microsomes, Method B8; assay type: in vitro ADME; settings: human liver microsomes 0.8 mg/mL, 5 μM compound, 37° C.
Description: B8. Metabolic Stability in Human Liver Microsomes
The liver is the primary site for phase I (oxidation) and phase II (glucuronidation) enzymatic activity responsible for xenobiotic metabolism. Human liver microsomes are used as in vitro screen of metabolic activity for candidate drugs. Similar studies can be run with microsomes from other species, such as those used for in vivo studies, to determine any significant species differences in the stability profile. The aim of this study was to measure the broad-spectrum metabolic stability of representative compounds of the invention. The key aspects of the experimental design are summarized below: • Human liver microsomes (mixed pool of 15 male and female donors) were purchased from In Vitro Technologies (Baltimore, Md.). • Microsomes characterized for phase I (Cyp2A6, 2D6, 2E1, 1A2, 2C19, 3A4, 4A) and phase II (glucuronidation) enzymatic activity. • Assays are performed using a final concentration of 0.8 mg/mL of microsomes in 100 mM potassium phosphate buffer (1.5 mM NADPH, 8 mM MgCl2, pH 7.4, 37° C.). • Compounds are tested in duplicate samples at a single concentration of 5 μM (0.05% DMSO). • Test articles are incubated with the microsomes at 37° C.

[2] = Pharmacokinetic analysis (intravenous and oral), Method B9; assay type: in vivo; settings: Table 10b; for Cl / t1/2: 2 mg/mL intravenous typically employed
Description: B9. Pharmacokinetic Analysis
The pharmacokinetic (PK) behavior of compounds of the invention and their pharmaceutical compositions can be ascertained by methods well known to those skilled in the art and can be used to investigate the pharmacokinetic parameters (elimination half-life, total plasma clearance, etc.) for intravenous, subcutaneous and oral administration of these substances. (Wilkinson, G. R. “Pharmacokinetics: The Dynamics of Drug Absorption, Distribution, and Elimination” in Goodman & Gilman's The Pharmacological Basis of Therapeutics, Tenth Edition, Hardman, J. G.; Limbird, L. E., Eds., McGraw Hill, Columbus, Ohio, 2001, Chapter 1.) See also U.S. Pat. Nos. 7,476,653; 7,491,695; Intl. Pat. Appl. WO 2008/033328 and U.S. Patent Appl. Publ. 2008/0194672. As an example, compound 1505 has the PK profile below.
The determination of PK parameters for additional representative compounds of the invention is presented in the Examples.
A detailed analysis of the pharmacokinetic profile of representative compounds of the invention was conducted using the procedures outlined in Method B9.
A dose level of 2 mg/mL for intravenous administration and 8 mg/mL for oral administration were typically employed.

[3] = target: T1, GHS-R1a receptor (HEK293 cells expressing GHS-R1a receptor) (Homo sapiens, UniProt Q92847); assay: Fluorescence functional assay (ghrelin receptor), Method B2, agonist and antagonist mode; assay type: cell-based; settings: functional activity as an antagonist at the ghrelin receptor, Methods B2 and B3
T1 construct: host or cells: HEK293
Description: • 1. ImageTrak Epi-Fluorescence system (Perkin-Elmer) • 2. MultiDrop TiterTek • 3. CO2 incubators: 5% CO2, humidified, 37° C.
• 1. Hanks' BSS without phenol red (Life Technologies) • 2. Hepes buffer • 3. Probenecid (Sigma) • 4. […] Falcon cell culture 96-well black/clear bottom plates • 6. 0.05% trypsin-EDTA • 7. Cells: HEK293 cells expressing GHS-R1a receptor (Perkin-Elmer BioSignal) were grown in DMEM (Dulbecco's Modified Eagles Medium) with 10% FBS, 1% sodium pyruvate, 1% NEAA and 400 μg/mL geneticin • 8. […] [D-Lys^3]-GHRP-6 (reference antagonist, Phoenix #031-22) • 10. Assay buffer: HBSS-20 mM Hepes containing 2.5 mM probenecid and 0.1% BSA (bovine serum albumin); pH 7.4
Stock solutions of compounds (10 mM in 100% DMSO) were provided frozen on dry ice and stored at −80° C. prior to use. […] Assay plates were then prepared by appropriate dilution in assay buffer.
Typical Final Test Concentrations (N=10) for Test Compounds (agonist):
Typical Final Test Concentrations (N=10) for Test Compounds (antagonist):
Cells were maintained in culture as indicated above. The cells were harvested at a confluency of 70-90% the day before the experiment. Growth medium was removed and the cells rinsed briefly with PBS without Ca^+2 and Mg^+2. 0.05% Trypsin was added and the plates incubated at 37° C. for 5 min to detach the cells. DMEM medium supplemented with 10% FBS was added to inactivate the trypsin and determine the cell concentration. The inoculum was adjusted to a final concentration of 200 cells/μL and dispensed at 200 μL per well into a 96-well block plate. The plates were, incubated at 37° C. overnight.
The plates were removed from the incubator and the media removed by inversion of the plates. Calcium-3 dye, 50 μL, was loaded and then incubated for 1 h at 37° C. The plate was again inverted and then 25 μL of assay buffer added. The plates were then transferred to the ImageTrak system for analysis. For agonist testing, after reading for ten (10) sec, 25 μL of 2× test compound or control was injected into the assay plate. Fluorescence was monitored for an additional 50 sec. A reading was taken every two (2) seconds for a total of 30 readings per assay point.
For antagonist testing, after reading for ten (10) sec, 12.5 μL of 3× test compound or control was injected into the assay plate and allowed to react for three (3) min.
Concentration response curves were analyzed using GraphPad Prism (GraphPad Software, San Diego, Calif.) by non-linear regression analysis (sigmoidal dose-response). EC50 values are calculated using GraphPad.
Emax values were calculated using the following formula: […]
Concentration response curves were analyzed using GraphPad Prism (GraphPad Software, San Diego, Calif.) by non-linear regression analysis (sigmoidal dose-response). IC50 values are calculated using GraphPad.
Imax values were calculated using the following formula: […]

[4] = target: T2, human ghrelin receptor (GRLN, growth hormone secretagogue receptor, hGHS-R1a) (Homo sapiens, UniProt Q92847); assay: Competitive radioligand binding assay (ghrelin receptor), Method B1; settings: Ghrelin receptor binding activity, Method B1
T2 construct: purchased PerkinElmer BioSignal #RBHGHSM, lot#1887; host or cells: HEK-293 cells, stably transfected (membranes)
In short: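 Membranes incubated with compound 30 min at rt in 25 mM Hepes pH 7.4, 1 mM CaCl2, 5 mM MgCl2, 2.5 mM EDTA, 0.4% BSA, max 0.1% DMSO; filtered on PEI-soaked GF/C, washed with cold Tris, scintillation counted. Curves fitted by variable-slope non-linear regression.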

[5] = target: T3, ghrelin receptor (HEK-GHSR1 stable cells) (Homo sapiens, UniProt Q92847); assay: Ghrelin receptor inverse agonist assay (HTRF IP-one), Method B4; assay type: cell-based; settings: inverse agonist at the ghrelin receptor, Method B4
T3 construct: expressed in transfected cells
Description: B4. Ghrelin Receptor Inverse Agonist Assay […]
In addition, the following method can be utilized to assay for inverse agonist activity. (Thomsen, W.; et al. Curr. Opin. Biotechnol. 2005, 16, 655-665; Tozawa-Takahashi F; et al., 11th SBS Annual Conference. September 2005, Geneva; Trinquet, E.; Fink, M.; Bazin, H.; et al. Anal. Biochem. 2006, 358, 126-135; Bergsdorf, C.; Kropp-Goerkis, C.; Kaehler, I.; Ketscher, L.; Boerner, U.; Parczyk, K.; Bader, B. Assay Drug Dev. Technol. 2008, 6, 39-53.)
• 1. Remove culture medium from the plate by inversion. • 2. Add 70 μl of compound/well. • 3. Incubate 30 min at 37° C. • 4. Stop the reaction by adding 15 μl of lysis buffer/well. • 5. Add 15 μl of d2/well. • 6. Add 15 μl of Anti-IP1 cryptate/well. • 7. Incubate 1 h at room temp on an orbital shaker at 100 RPM. • 8. Read the fluorescence in a plate reader (Tecan GeniosPro or similar)
The above sequence was performed using the HTRF IP-one kit (CisBio cat#62P1APEC). For the simultaneous assay of multiple test compounds, 96-well plates can be utilized in this assay (white plate with flat-bottom well, Falcon #353296). These were seeded overnight with 100 000 of HEK-GHSR1 stable cells/well. • Wells A1 and A2 of each plate are used as negative control (wells without d2). Compounds are typically tested in replicate at the following concentrations:
Compounds are stored at 10 mM in 100% DMSO.
1st dilution 1/10 in 100% DMSO (1 mM final concentration).
2nd dilution 1/10 in H2O (0.1 mM final concentration).
Other dilutions are performed in a 96-well plate in stimulation buffer.
The results for representative compounds of the invention are provided in the Examples.

T1 sequence (Q92847 whole entry): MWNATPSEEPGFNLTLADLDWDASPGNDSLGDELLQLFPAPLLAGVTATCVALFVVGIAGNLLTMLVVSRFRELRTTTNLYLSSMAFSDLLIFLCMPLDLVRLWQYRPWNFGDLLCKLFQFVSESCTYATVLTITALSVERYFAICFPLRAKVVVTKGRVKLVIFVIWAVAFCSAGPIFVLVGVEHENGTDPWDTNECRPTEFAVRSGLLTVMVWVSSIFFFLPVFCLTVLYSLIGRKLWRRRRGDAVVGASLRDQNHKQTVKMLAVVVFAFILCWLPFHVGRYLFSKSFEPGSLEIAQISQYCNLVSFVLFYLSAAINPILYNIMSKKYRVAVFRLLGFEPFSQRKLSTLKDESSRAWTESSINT
T2 sequence (Q92847 whole entry): as above
T3 sequence (Q92847 whole entry): as above

Compound | HLM, metabolic stability in human liver microsomes [1] [μL/min/mg protein] | % F ([2]; 2 mg/mL intravenous and 8 mg/mL oral typically employed) [%] | Cl [2] [mL/min/kg] | t1/2 [2] [h] | Antagonist Activity [3] | IC50 [4] [nM] | IC50 [5] [nM]
CC(C)[C@@H]1NCCOc2ccc(F)cc2CCCNC(=O)[C@@H](Cc2ccccc2)NC(=O)[C@H](C(C)O)N(C)C1=O (some centres unmarked) [Compound 1377] | 65.5 |  |  |  |  |  | 
CC(C)[C@@H]1NCCOc2ccccc2CC[C@@H](C)NC(=O)[C@@H](Cc2cccc(C(F)(F)F)c2)NC(=O)[C@H](C(C)O)N(C)C1=O (some centres unmarked) [Compound 1412] | 35.4 |  |  |  |  |  | 
COc1cccc(C[C@H]2NC(=O)[C@H](C(C)O)N(C)C(=O)[C@H](C(C)C)NCCOc3cc(F)ccc3CC[C@@H](C)NC2=O)c1 (some centres unmarked) [Compound 1473] | 14.2 |  |  |  |  |  | 
CCC1CCc2ccc(Cl)cc2OCCNC(C(C)C)C(=O)N(C)C(C(C)O)C(=O)NC(Cc2c[nH]c3ccccc23)C(=O)N1 (centres unmarked) [Compound 1806] |  |  |  |  | C (C = 10-100 nM) | 10 to 100 | 100 to 500
CCC1CCc2ccc(F)cc2OCCNC(C(C)C)C(=O)N(C)C(C(C)O)C(=O)NC(Cc2cn(S(=O)(=O)c3ccc(C)cc3)c3ccccc23)C(=O)N1 (centres unmarked) [Compound 1812] |  |  |  |  | C (C = 10-100 nM) | 10 to 100 | 50 to 100
CCC1CCc2ccc(F)cc2OCCNC(CC)C(=O)N(C)C(C(C)O)C(=O)NC(Cc2ccccc2)C(=O)N1 (centres unmarked) [Compound 1854] |  |  |  |  |  | 100 to 500 | 100 to 500
CCC1CCc2ccc(F)cc2OCCNC(CC)C(=O)N(C)C(C(C)O)C(=O)NC(Cc2ccc(F)cc2)C(=O)N1 (centres unmarked) [Compound 1855] |  |  |  |  |  | 10 to 100 | 100 to 500
CC(O)[C@H]1C(=O)N[C@H](Cc2ccc(F)cc2)C(=O)NCC#Cc2ccccc2OCCN[C@@H](C2(C)CC2)C(=O)N1C (some centres unmarked) [Compound 1879] |  |  |  |  |  | 10 to 100 | 10 to 50

The next lines start with the values.

HLM, metabolic stability in human liver microsomes [1] [μL/min/mg protein] | % F ([2]; 2 mg/mL intravenous and 8 mg/mL oral typically employed) [%] | Cl [2] [mL/min/kg] | t1/2 [2] [h] | Antagonist Activity [3] | IC50 [4] [nM] | IC50 [5] [nM] | Compound
 | 50 ± 14 | 6 ± 2 | 2.77 ± 0.033 | C (C = 10-100 nM) | 10 to 100 | 100 to 500 | CCC1CCc2ccc(F)cc2OC(C)CNC(C2(C)CC2)C(=O)N(C)C(C(C)O)C(=O)NC(Cc2ccccc2)C(=O)N1 (centres unmarked) [Compound 1705]
 |  |  |  | B (B = 1-10 nM) | 10 to 100 | 50 to 100 | CC[C@@H]1CCc2ccc(F)cc2OCCN[C@@H](C2(C)CC2)C(=O)N(C)[C@@H](C(C)O)C(=O)N[C@H](Cc2cccc(F)c2)C(=O)N1 (some centres unmarked) [Compound 1747]
 |  |  |  | B (B = 1-10 nM) | 10 to 100 | 50 to 100 | CC[C@@H]1CCc2ccc(F)cc2OCCN[C@@H](C(C)C)C(=O)N(C)[C@@H](C(C)O)C(=O)N[C@H](Cc2ccc(Cl)cc2)C(=O)N1 (some centres unmarked) [Compound 1753]
 |  |  |  | C (C = 10-100 nM) | 1 to 10 | 50 to 100 | CCC(C)C1NCCOc2cccc(F)c2C=CCNC(=O)C(Cc2ccc(Cl)cc2)NC(=O)C(C(C)O)N(C)C1=O (centres unmarked) [Compound 1799]
 |  |  |  | B (B = 1-10 nM) | 1 to 10 | 10 to 50 | CC1CCc2ccccc2OCCNC(C(C)C)C(=O)N(C)C(C(C)O)C(=O)NC(Cc2c[nH]c3ccc(F)cc23)C(=O)N1 (centres unmarked) [Compound 1801]
 |  | 10 ± 1 | 1.72 ± 0.217 | B (B = 1-10 nM) | 1 to 10 | 10 to 50 | CCC1CCc2ccc(F)cc2OCCNC(C(C)C)C(=O)N(C)C(C(C)O)C(=O)NC(Cc2c[nH]c3ccc(F)cc23)C(=O)N1 (centres unmarked) [Compound 1803]
 |  |  |  | C (C = 10-100 nM) | 10 to 100 | 100 to 500 | CCC1CCc2ccc(F)cc2OCCNC(C(C)C)C(=O)N(C)C(C(C)O)C(=O)NC(C(C)c2ccccc2)C(=O)N1 (centres unmarked) [Compound 1805]
 |  |  |  | B (B = 1-10 nM) | 1 to 10 | 10 to 50 | CCC1CCc2ccccc2OCCNC(C(C)C)C(=O)N(C)C(C(C)O)C(=O)NC(Cc2c[nH]c3ccc(F)cc23)C(=O)N1 (centres unmarked) [Compound 1808]
 |  |  |  |  | 1 to 10 | 10 to 50 | CC(O)[C@H]1C(=O)N[C@H](Cc2ccc(Cl)cc2)C(=O)N[C@H](C)CCc2ccc(F)cc2OCCN[C@@H](C2(C)CC2)C(=O)N1C (some centres unmarked) [Compound 1872]
 |  |  |  |  | 1 to 10 | 50 to 100 | CC[C@@H]1CCc2ccc(F)cc2OCCN[C@@H](C2(C)CC2)C(=O)N(C)[C@@H](C(C)O)C(=O)N[C@H](Cc2ccc(Cl)cc2)C(=O)N1 (some centres unmarked) [Compound 1875]
 |  |  |  |  | 1 to 10 | 10 to 50 | CC(O)[C@H]1C(=O)N[C@H](Cc2ccc(F)cc2)C(=O)NCC#Cc2c(F)cccc2OCCN[C@@H](C2(C)CC2)C(=O)N1C (some centres unmarked) [Compound 1884]
